According to US9718773B2, “Substituted 5 membered heterocyclic compounds and preparation thereof” (Council of Scientific and Industrial Research, priority 2014, dated 2017):
Where two headings read alike, the source gives them in different places.

Assays:
[1] = test system: Mycobacterium smegmatis MC^2155 strain; assay: Anti-mycobacterial growth inhibition assay (turbidometry, 96 well plate); type: cell-based; conditions: Mycolicibacterium smegmatis
Procedure: Anti-Mycobacterial Activity Assay:
Anti-mycobacterial activity of the synthesized compounds was performed with Mycobacterium smegmatis MC^2155 strain by performing a growth inhibition assay by agar dilution followed turbidometry method. The assay was semi-throughput and conducted in a 96 well plate (sterile). Isolated single colonies of M. smegmatis MC^2 155 (ATCC 14468) grown on 7H10 agar plate were grown overnight in Middlebrook 7H9 medium (0.47% Middlebrook 7H9 broth base, 10% ADS, 0.2% glycerol, and 0.1% Tween-80) to mid exponential phase at 37° C. When the OD of this culture reached approximately 0.8, a secondary culture was inoculated in 5 ml Middlebrook 7H9 medium. The secondary culture was incubated overnight and allowed to grow at 37° C. to early log phase (OD600≈0.3). For the anti-mycobacterial assay, 98 μl of 1:1000-folds dilution of secondary culture was dispensed into 96-well microtiter plate per well along with 2 μl of test compound in triplicate. 240 μl of sterile water were added to each well of the peripheral rows of 96-well plate to minimize media evaporation during assay incubation. The final concentration of the test compound in each well was 30 μM. Bacterial growth was assessed after 32 hours of incubation by measuring turbidity at 600 nm OD600 values using TECAN Infinite 200 PRO™ (Tecan Instruments, Switzerland). Depending upon the percentage of growth, the percentage of inhibition was calculated at the standard concentration of 30 μM. Isoniazid and Rifampicin were included in every assay plate as positive controls of growth inhibition using stock solutions of INH (10 mg/mL, HiMedia) and Rifampicin (10 mg/mL, HiMedia) to achieve the final concentration of 16 μg/mL for INH and 2 μg/mL for Rifampicin. Additional controls, DMSO (solvent without compound) and medium without inoculums, were included in all the assay plates avoiding intra assay variability. The results were analyzed as the percentage of growth inhibition.

[2] = ATCC14468|MC^2155, test compound 30 μM, bacterial growth after 32 hours by OD600, M. smegmatis MC^2 155 (ATCC 14468), read-out: % Inhibition

Compound	melting point [°C]	further results
CCOC(=O)C[C@H]1CN(C(=O)OC(C)C)N(C(=O)OC(C)C)[C@@H]1Cc1cc2c(cc1[N+](=O)[O-])OCO2 [2i, Diisopropyl(3R,4S)-4-(2-ethoxy-2-oxoethyl)-3-((6-nitrobenzo[d][1,3]dioxol-5-yl)methyl)pyrazolidine-1,2-dicarboxylate]		inhibition at 30 µM [1, 2]: 29.3%
CCOC(=O)C[C@@H]1[C@@H](C(NC(=O)OC(C)(C)C)c2ccc(F)cc2)CN(S(=O)(=O)c2ccc(C)cc2)[C@@H]1C(=O)OCC (stereo partly shown)	148 to 150	
Cc1ccc(S(=O)(=O)N2C[C@H]([C@@H](NC(=O)OC(C)(C)C)c3ccc(Cl)cc3)[C@H](O)C2)cc1 [Ib, tert-butyl ((R)-(4-chlorophenyl)((3R,4S)-4-hydroxy-1-tosylpyrrolidin-3-yl)methyl)carbamate]	203 to 205	
CCOC(=O)C[C@@H]1[C@@H](C(NC(=O)OC(C)(C)C)c2ccc(C(F)(F)F)cc2)CN(S(=O)(=O)c2ccc(C)cc2)[C@@H]1C(=O)OCC (stereo partly shown)	169 to 170	
CCOC(=O)C[C@@H]1[C@@H](C(NC(=O)OC(C)(C)C)c2ccc3ccccc3c2)CN(S(=O)(=O)c2ccc(C)cc2)[C@@H]1C(=O)OCC (stereo partly shown)	160 to 161	
Cc1ccc(S(=O)(=O)N2C[C@H]([C@@H](NC(=O)OC(C)(C)C)c3ccccc3)[C@H](O)C2)cc1 [Ia, tert-butyl ((R)-((3R,4S)-4-hydroxy-1-tosylpyrrolidin-3-yl)(phenyl)methyl)carbamate]	197 to 200	
Cc1ccc(S(=O)(=O)N2C[C@H]3[C@@H](C2)OC(=O)N[C@H]3c2ccc(Br)cc2)cc1 [If, (4R, 4aR, 7aS)-4-(4-Bromophenyl)-6-tosylhexahydropyrrolo [3,4-e][1,3]oxazin-2(3H)-one]	210 to 213	
CCOC(=O)C[C@@H]1[C@@H](C(NC(=O)OC(C)(C)C)c2ccc(Br)cc2)CN(S(=O)(=O)c2ccc(C)cc2)[C@@H]1C(=O)OCC (stereo partly shown) [IF]		inhibition at 30 µM ([1]; ATCC14468|MC^2155, 32 h): 10.8%
CCOC(=O)C[C@@H]1[C@@H](C(NC(=O)OC(C)(C)C)c2ccccc2)CN(S(=O)(=O)c2ccc(C)cc2)[C@@H]1C(=O)OCC (stereo partly shown) [IA]		inhibition at 30 µM ([1]; ATCC14468|MC^2155, 32 h): 13.5%
Cc1ccc([C@H](NC(=O)OC(C)(C)C)[C@H]2CN(S(=O)(=O)c3ccc(C)cc3)C[C@H]2O)cc1 [Id, tert-butyl ((R)-((3R,4S)-4-hydroxy-1-tosylpyrrolidin-3-yl)(p-tolyl)methyl)carbamate]	187 to 190	
Cc1ccc(S(=O)(=O)N2C[C@H]3[C@@H](C2)OC(=O)N[C@H]3c2ccc(F)cc2)cc1	207 to 211	
CCOC(=O)C[C@H]1CN(C(=O)OC(C)C)N(C(=O)OC(C)C)[C@@H]1Cc1ccc(OC)cc1 [2e, Diisopropyl (3R,4S)-4-(2-ethoxy-2-oxoethyl)-3-(4-methoxybenzyl)pyrazolidine-1,2-dicarboxylate]		inhibition at 30 µM [1, 2]: 14%
CCOC(=O)C[C@@H]1[C@@H](C(NC(=O)OC(C)(C)C)c2ccc(C)cc2)CN(S(=O)(=O)c2ccc(C)cc2)[C@@H]1C(=O)OCC (stereo partly shown)	177 to 178	
CCOC(=O)C[C@@H]1[C@@H](C(NC(=O)OC(C)(C)C)c2ccc(Br)cc2)CN(S(=O)(=O)c2ccc(C)cc2)[C@@H]1C(=O)OCC (stereo partly shown)	161 to 163	
CCOC(=O)C[C@@H]1[C@@H](C(NC(=O)OC(C)(C)C)c2ccc(Cl)cc2)CN(S(=O)(=O)c2ccc(C)cc2)[C@@H]1C(=O)OCC (stereo partly shown)	155 to 156	
CCOC(=O)C[C@@H]1[C@@H](C(NC(=O)OC(C)(C)C)c2ccc3ccccc3c2)CN(S(=O)(=O)c2ccc(C)cc2)[C@@H]1C(=O)OCC (stereo partly shown) [IE]		inhibition at 30 µM ([1]; ATCC14468|MC^2155, 32 h): 20.7%
CCOC(=O)C[C@@H]1[C@@H]([C@@H](NC(=O)OC(C)(C)C)c2ccc(F)cc2)CN(S(=O)(=O)c2ccc(C)cc2)[C@@H]1C(=O)OCC [IG, ethyl (2S,3R,4R)-4-((R)-((tert-butoxycarbonyl)amino)(4-fluorophenyl)methyl)-3-(2ethoxy-2-oxoethyl)-1-tosylpyrrolidine-2-carboxylate]		inhibition at 30 µM ([1]; ATCC14468|MC^2155, 32 h): 18.2%
Cc1ccc(S(=O)(=O)N2C[C@H]3[C@@H](C2)OC(=O)N[C@H]3c2ccc3ccccc3c2)cc1 [Ie, (4R,4aR,7aS)-4-(naphthalen-2-yl)-6-tosylhexahydropyrrolo[3,4-e][1,3]oxazin-2(3H)-one]	153 to 156	
CCOC(=O)C[C@@H]1[C@@H](C(NC(=O)OC(C)(C)C)c2ccc(C(F)(F)F)cc2)CN(S(=O)(=O)c2ccc(C)cc2)[C@@H]1C(=O)OCC (stereo partly shown) [IC]		inhibition at 30 µM ([1]; ATCC14468|MC^2155, 32 h): 0.493%
CCOC(=O)C[C@H]1CN(C(=O)OC(C)C)N(C(=O)OC(C)C)[C@@H]1Cc1ccc(SC)cc1 [2g, Diisopropyl (3R,4S)-4-(2-ethoxy-2-oxoethyl)-3-(4-(methylthio)benzyl)pyrazolidine-1,2-dicarboxylate]		inhibition at 30 µM [1, 2]: 24.9%
Cc1ccc(S(=O)(=O)N2C[C@H]([C@@H](NC(=O)OC(C)(C)C)c3ccco3)[C@H](O)C2)cc1	136 to 139	
CSc1ccc([C@H](NC(=O)OC(C)(C)C)[C@H]2CN(S(=O)(=O)c3ccc(C)cc3)C[C@H]2O)cc1 [Ii, tert-Butyl ((R)-((3R, 4S)-4-hydroxy-1-tosylpyrrolidin-3-yl)(4-(methylthio)phenyl)methyl)carbamate]	209 to 211	
Cc1ccc(S(=O)(=O)N2C[C@H]([C@@H](NC(=O)OC(C)(C)C)c3ccc(C(F)(F)F)cc3)[C@H](O)C2)cc1 [Ic, tert-butyl ((R)-((3R,4S)-4-hydroxy-1-tosylpyrrolidin-3-yl)(4-(trifluoromethyl)phenyl)methyl)carbamate]	202 to 204	
CCOC(=O)C[C@@H]1[C@@H](C(NC(=O)OC(C)(C)C)c2ccccc2)CN(S(=O)(=O)c2ccc(C)cc2)[C@@H]1C(=O)OCC (stereo partly shown)	150 to 151	
Cc1ccc(S(=O)(=O)N2C[C@H]([C@@H](NC(=O)OC(C)(C)C)c3cccs3)[C@H](O)C2)cc1 [Ij, tert-Butyl ((R)-((3R, 4S)-4-hydroxy-1-tosylpyrrolidin-3-yl)(thiophen-2-yl)methyl) carbamate]	186 to 189	
